Publication PMC6656724 (Communications Biology, 2019)
Where two headings read alike, the source gives them in different places.

Columns and labels:
[1] = target: T1, Homo sapiens KMO (HsKMO) (Homo sapiens, UniProt O15229); assay: KMO inhibition assay, NADPH oxidation at 340 nm (HsKMO); format: biochemical
T1 construct: GST; made in house
From the text: (§1) A combination of ligand- and structural-based virtual screening approaches (see supporting information for details) was used to identify an initial library of >1000 compounds that may be suitable as potential KMO inhibitors. These compounds were screened for inhibition of Pseudomonas fluorescens KMO (PfKMO) and Homo sapiens KMO (HsKMO) using high-throughput assays by monitoring the time-dependent oxidation of NADPH at 340 nm[23].
(§2) Small-molecule compounds were supplied by Biofocus (Charles River Laboratories International Inc., MA, USA), which were identified in silico as potential inhibitors (further details are described in the Supplementary Methods). Initial inhibition assays were performed against Pseudomonas fluorescens KMO (PfKMO) and Homo sapiens KMO (HsKMO) by monitoring the time-dependent absorbance change of NADPH at 340 nm. Purified KMO protein (200 nM) was incubated in 100 µL reaction buffer (20 mM potassium phosphate pH 8.0, 7 mM 2-mercaptoethanol) containing 100 μM NADPH, 100 μM L-Kyn and 20 μM potential inhibitors in 96-well plates. […] The inhibitors identified in the initial screens were validated and re-assayed individually in a 1 cm path-length quartz micro cuvette. […] Suppliers for target inhibitor compounds are listed in Supplementary Table 11.
Supplementary Figure 1. Examples of inhibition data used to generate IC50 values for selected KMO inhibitors.
NADPH (100µM) were added into reaction buffer (HsKMO: 20mM potassium phosphate pH 8.0, 7 mM 2-mercaptoethanol; PfKMO: 20 mM HEPES, 10mM sodium acetate, pH 7.5, 2mM DTT). The reaction was initiated by the addition of KMO enzyme (HsKMO: 0.5µM; PfKMO: 0.1 µM). KMO activity was measured in the presence of a range of inhibitor concentrations. […]
(§3) 3.5 Steady-state enzymatic assays.
(§4) Initial screening assays and determination of IC50 values for each potential inhibitor compound were carried out using either 0.1 µM PfKMO or 0.5 µM HsKMO at fixed […]
(§5) (HsKMO: 20 mM potassium phosphate pH 8.0, 7 mM 2-mercaptoethanol; PfKMO:
(§6) 20 mM HEPES, 10 mM sodium acetate, pH 7.5, 2 mM DTT). KMO activity was measured in the presence of a range of inhibitor concentrations by monitoring the […]
consumption of NADPH at 340 nm upon addition of enzyme via a Cary 50 UV-Vis spectrophotometer (Agilent Technologies). Rates were determined from linear regression fits to the initial linear portion of the curves. All measurements were performed in triplicate. The IC50 values for inhibitors were obtained by plotting the percentage inhibition versus the inhibitor concentration and fitting to the Morrison equation16 (equation 1) using Origin 9.0 Software (OriginLab, Northampton, MA).
E + I + K!"" − E + I + K!"" ! − 4[E][I] where v0 is the enzyme activity without inhibitor, vi is the enzyme activity with ligand

[2] = target: T2, Pseudomonas fluorescens KMO (PfKMO) (Pseudomonas fluorescens, UniProt Q84HF5, C252S/C461S); assay: biochemical
T2 construct: made in house; host or cells: E. coli BL21 (DE3)
From the text: as §1, §2
Supplementary Figure 1. Examples of inhibition data used to generate IC50 values for selected KMO inhibitors. Fixed concentration of L -KYN (200 µM) and NADPH (100µM) were added into reaction buffer (HsKMO: 20mM potassium phosphate pH 8.0, 7 mM 2-mercaptoethanol; PfKMO: 20 mM HEPES, 10mM sodium acetate, pH 7.5, 2mM DTT). The reaction was initiated by the addition of KMO enzyme (HsKMO: 0.5µM; PfKMO: 0.1 µM). KMO activity was measured in the presence of a range of inhibitor concentrations. […]
as §3, §4, §5, §6
consumption of NADPH at 340 nm upon addition of enzyme via a Cary 50 UV-Vis spectrophotometer (Agilent Technologies). Rates were determined from linear regression fits to the initial linear portion of the curves. All measurements were performed in triplicate. The IC50 values for inhibitors were obtained by plotting the percentage inhibition versus the inhibitor concentration and fitting to the Morrison equation16 (equation 1) using Origin 9.0 Software (OriginLab, Northampton, MA). […]

[3] = in vitro; format: in vitro ADME, canine; conditions: dog; for Papp A→B at 1 h, 10 µM / Papp B→A at 1 h, 10 µM / recovery at 1 h, 10 µM: MDCK
Protocol: (§7) internal standard at each timepoint. […]
(§8) including an analytical internal standard.
(§9) Apparent permeability (Papp) values were determined from the relationship: […]
(§10) Where V is the volume of each Transwell compartment (apical 125 µL, basolateral 600 µL), and concentrations are the relative MS responses for compound (normalized to internal standard) in the donor chamber before incubation and acceptor chamber at the end of the incubation. Area = area of cells exposed for drug transfer (0.33 cm 2).
(§11) Efflux ratios (Papp B>A / Papp A>B) were calculated for each compound from the […]
(§12) MDR1-MDCK cell line has been engineered to overexpress the efflux transporter, MDR1 (P-glycoprotein), and a finding of good permeability B>A, but poor […]
(§13) order to confirm the involvement of MDR1 in any efflux seen, an “ef fective efflux ratio” (EER) was calculated by comparing compound efflux ratios (ER) in the two cell types, i.e. EER = ER (MDR1-MDCK)/ ER (wild-type MDCK). This ratio illustrates the effect of the over-expressed MDR1 normalised for the background movement of compound through the wild-type cells.
(§14) Lucifer Yellow (LY) was added to the apical buffer in all wells to assess viability of the cell layer. As LY cannot freely permeate lipophilic barriers, a high degree of LY […]
(§15) validity of other wells on the plate.
(§16) Compound recovery from the wells was determined from MS responses (normalized to internal standard) in donor and acceptor chambers at the end of incubation compared to response in the donor chamber pre-incubation.

[4] = test system: MDR1 (P-glycoprotein); assay: in vitro; format: in vitro ADME, canine; conditions: dog
Protocol: as §7, §8, §9, §10, §11, §12, §13, §14, §15, §16

[5] = pH 7.4, Papp A>B n=1, wild type MDCK
[6] = pH 7.4, Papp A>B n=2, wild type MDCK
[7] = pH 7.4, Papp B>A n=1, wild type MDCK
[8] = pH 7.4, Papp B>A n=2, wild type MDCK
[9] = pH 7.4, wild type MDCK, read-out: Papp A>B Mean
[10] = pH 7.4, wild type MDCK, read-out: Papp B>A Mean
[11] = pH 7.4, wild type MDCK, read-out: Recovery A>B Mean
[12] = pH 7.4, wild type MDCK, read-out: Recovery A>B n=1
[13] = pH 7.4, wild type MDCK, read-out: Recovery A>B n=2
[14] = pH 7.4, wild type MDCK, read-out: Recovery B>A Mean
[15] = pH 7.4, wild type MDCK, read-out: Recovery B>A n=1
[16] = pH 7.4, wild type MDCK, read-out: Recovery B>A n=2
[17] = MDCK-MDR1, pH 7.4, MDR1 MDCK, read-out: Papp A>B Mean
[18] = MDCK-MDR1, pH 7.4, MDR1 MDCK, read-out: Papp B>A Mean
[19] = MDCK-MDR1, pH 7.4, MDR1 MDCK, read-out: Recovery A>B Mean
[20] = MDCK-MDR1, pH 7.4, MDR1 MDCK, read-out: Recovery A>B n=1
[21] = MDCK-MDR1, pH 7.4, MDR1 MDCK, read-out: Recovery A>B n=2
[22] = MDCK-MDR1, pH 7.4, MDR1 MDCK, read-out: Recovery B>A Mean
[23] = MDCK-MDR1, pH 7.4, MDR1 MDCK, read-out: Recovery B>A n=1
[24] = MDCK-MDR1, pH 7.4, MDR1 MDCK, read-out: Recovery B>A n=2
[25] = MDCK-MDR1, pH 7.4, Papp A>B n=1, MDR1 MDCK
[26] = MDCK-MDR1, pH 7.4, Papp A>B n=2, MDR1 MDCK
[27] = MDCK-MDR1, pH 7.4, Papp B>A n=1, MDR1 MDCK
[28] = MDCK-MDR1, pH 7.4, Papp B>A n=2, MDR1 MDCK

T1 sequence (O15229 whole entry): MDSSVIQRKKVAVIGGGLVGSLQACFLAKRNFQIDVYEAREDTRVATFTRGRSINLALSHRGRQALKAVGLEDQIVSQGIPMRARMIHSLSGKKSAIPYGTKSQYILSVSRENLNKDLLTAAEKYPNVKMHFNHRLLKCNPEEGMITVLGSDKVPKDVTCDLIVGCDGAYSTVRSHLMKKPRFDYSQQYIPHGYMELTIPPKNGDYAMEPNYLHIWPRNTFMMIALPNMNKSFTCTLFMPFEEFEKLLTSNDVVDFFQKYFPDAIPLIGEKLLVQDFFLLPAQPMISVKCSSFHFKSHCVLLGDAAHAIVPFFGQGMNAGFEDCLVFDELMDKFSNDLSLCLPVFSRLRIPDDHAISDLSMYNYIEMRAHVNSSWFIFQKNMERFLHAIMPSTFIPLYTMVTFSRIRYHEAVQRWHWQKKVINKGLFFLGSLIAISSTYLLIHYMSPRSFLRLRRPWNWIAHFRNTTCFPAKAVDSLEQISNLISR
T2 sequence (Q84HF5 whole entry C252S/C461S): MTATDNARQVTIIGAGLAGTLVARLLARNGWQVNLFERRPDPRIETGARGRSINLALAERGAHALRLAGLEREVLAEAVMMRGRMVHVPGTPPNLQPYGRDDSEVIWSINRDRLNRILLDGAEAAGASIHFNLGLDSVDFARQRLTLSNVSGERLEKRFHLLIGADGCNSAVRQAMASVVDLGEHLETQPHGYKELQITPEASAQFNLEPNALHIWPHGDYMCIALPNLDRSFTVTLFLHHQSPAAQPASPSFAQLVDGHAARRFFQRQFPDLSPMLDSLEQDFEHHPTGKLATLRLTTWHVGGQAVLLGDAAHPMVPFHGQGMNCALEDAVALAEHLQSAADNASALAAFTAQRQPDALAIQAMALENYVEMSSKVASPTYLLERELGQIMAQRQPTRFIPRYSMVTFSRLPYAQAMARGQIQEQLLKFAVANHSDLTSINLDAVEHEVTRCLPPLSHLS

SMILES: Cc1cc2c(c(C)c1Cl)N(CC(N)=O)C(=O)CO2 [1g]
- IC50 [1]: > 300 µM
- IC50 [2]: > 300 µM

SMILES: Cc1ccc2c(c1)cc(C(=O)N[C@@H](C(=O)O)c1ccccc1)n2C [compound 7, (R)-2-(1,5-dimethyl-1H-indole-2-carboxamido)-2-phenylacetic acid]
- IC50 [1]: 21.3 µM
- IC50 [2]: 101 ± 9.1 µM

SMILES: COc1ccc(-c2cn(CC(=O)O)c(=O)cn2)cc1 [compound 15, 2-(5-(4-methoxyphenyl)-2-oxopyrazin-1(2H)-yl)acetic acid]
- IC50 [1]: 54.2 µM
- IC50 ([2]; read-out: IC50 PfKMO): 6.3 ± 0.6 µM

SMILES: O=C(O)CCc1ccc(-c2cccs2)n1-c1ccc(Br)cc1 [compound 2, 3-[1-(4-bromophenyl)-5-(2-thienyl)-1H-pyrrol-2-yl] propanoic acid]
- IC50 [1]: 1.5 µM
- IC50 [2]: 130 ± 18.7 µM

SMILES: O=C(O)c1ccc(-c2ccc(Br)c(Cl)c2)o1 [compound 19, 5-(4-bromo-3-chlorophenyl) furan-2-carboxylic acid]
- IC50 [1]: 54.2 µM
- IC50 [2]: 0.7 ± 0.01 µM

SMILES: O=C(O)c1ccc(-c2ccc(F)c(Cl)c2)o1 [compound 18, 5-(3-chloro-4-fluorophenyl) furan-2-carboxylic acid]
- IC50 [1]: 193 µM
- IC50 [2]: 2.4 ± 0.3 µM

SMILES: O=C(O)c1ccc(-c2cc(C(F)(F)F)ccc2Cl)o1 [compound 12, 5-[2-chloro-5-(trifluoromethyl)phenyl]furan-2-carboxylic acid]
- IC50 [1]: 31.8 µM
- IC50 [2]: 54 ± 1.6 µM

SMILES: O=C(O)c1ccc(-c2ccccc2C(F)(F)F)o1 [compound 11, 5-[2-(trifluoromethyl)phenyl]furan-2-carboxylic acid]
- IC50 [1]: 144 µM
- IC50 [2]: 72.1 ± 1.9 µM

SMILES: O=C(O)c1ccc(-c2ccc(Cl)cc2Cl)o1 [compound 16, 5-(2,4-dichlorophenyl) furan-2-carboxylic acid]
- IC50 [1]: 207 µM
- IC50 [2]: 70.2 ± 2.8 µM

SMILES: CC(C)NCC(O)COc1cccc2ccccc12 (stereo not drawn) [Propranolol, reference compound]
- Papp A→B at 1 h, 10 µM [3, 5]: 52 ×10⁻⁶ cm/s
- Papp A→B at 1 h, 10 µM [3, 6]: 57 ×10⁻⁶ cm/s
- Papp B→A at 1 h, 10 µM [3, 7]: 30 ×10⁻⁶ cm/s
- Papp B→A at 1 h, 10 µM [3, 8]: 31 ×10⁻⁶ cm/s
- Papp A→B at 1 h, 10 µM [3, 9]: 54.5 ×10⁻⁶ cm/s
- Papp B→A at 1 h, 10 µM [3, 10]: 30.5 ×10⁻⁶ cm/s
- recovery at 1 h, 10 µM [3, 11]: 91%
- recovery at 1 h, 10 µM [3, 12]: 88%
- recovery at 1 h, 10 µM [3, 13]: 94%
- recovery at 1 h, 10 µM [3, 14]: 80.5%
- recovery at 1 h, 10 µM [3, 15]: 77%
- recovery at 1 h, 10 µM [3, 16]: 84%
- efflux ratio at 1 h, 10 µM ([3]; pH 7.4, wild type MDCK, Papp B>A / Papp A>B): 0.56
- Papp A→B at 1 h, 10 µM [4, 17]: 52.5 ×10⁻⁶ cm/s
- Papp B→A at 1 h, 10 µM [4, 18]: 38 ×10⁻⁶ cm/s
- recovery at 1 h, 10 µM [4, 19]: 92.5%
- recovery at 1 h, 10 µM [4, 20]: 97%
- recovery at 1 h, 10 µM [4, 21]: 88%
- recovery at 1 h, 10 µM [4, 22]: 80.5%
- recovery at 1 h, 10 µM [4, 23]: 83%
- recovery at 1 h, 10 µM [4, 24]: 78%
- Papp A→B at 1 h, 10 µM [4, 25]: 53 ×10⁻⁶ cm/s
- Papp A→B at 1 h, 10 µM [4, 26]: 52 ×10⁻⁶ cm/s
- Papp B→A at 1 h, 10 µM [4, 27]: 39 ×10⁻⁶ cm/s
- Papp B→A at 1 h, 10 µM [4, 28]: 37 ×10⁻⁶ cm/s
- efflux ratio at 1 h, 10 µM ([4]; pH 7.4, MDR1 MDCK, Papp B>A / Papp A>B): 0.72

SMILES: CC(C)n1c(CCC(=O)O)ccc1-c1ccc(Cl)cc1 [compound 14, 3-[5-(4-chlorophenyl)-1-(methylethyl)pyrrol-2-yl]propanoic acid]
- IC50 [1]: 38.8 µM

SMILES: CC[C@]1(O)C[C@@H]2CN(CCc3c([nH]c4ccccc34)[C@@](C(=O)OC)(c3cc4c(cc3OC)N(C)[C@H]3[C@@](O)(C(=O)OC)[C@H](OC(C)=O)[C@]5(CC)C=CCN6CC[C@]43[C@@H]65)C2)C1 [Vinblastine, reference compound]
- Papp A→B at 1 h, 10 µM [3, 5]: < 1 ×10⁻⁶ cm/s
- Papp A→B at 1 h, 10 µM [3, 6]: < 1 ×10⁻⁶ cm/s
- Papp B→A at 1 h, 10 µM [3, 7]: 3.6 ×10⁻⁶ cm/s
- Papp B→A at 1 h, 10 µM [3, 8]: 3.9 ×10⁻⁶ cm/s
- Papp A→B at 1 h, 10 µM [3, 9]: < 1 ×10⁻⁶ cm/s
- Papp B→A at 1 h, 10 µM [3, 10]: 3.75 ×10⁻⁶ cm/s
- recovery at 1 h, 10 µM [3, 11]: 46.5%
- recovery at 1 h, 10 µM [3, 12]: 48%
- recovery at 1 h, 10 µM [3, 13]: 45%
- recovery at 1 h, 10 µM [3, 14]: 72.5%
- recovery at 1 h, 10 µM [3, 15]: 71%
- recovery at 1 h, 10 µM [3, 16]: 74%
- Papp A→B at 1 h, 10 µM [4, 17]: < 1 ×10⁻⁶ cm/s
- Papp B→A at 1 h, 10 µM [4, 18]: 22 ×10⁻⁶ cm/s
- recovery at 1 h, 10 µM [4, 19]: 55%
- recovery at 1 h, 10 µM [4, 20]: 55%
- recovery at 1 h, 10 µM [4, 21]: 55%
- recovery at 1 h, 10 µM [4, 22]: 67.5%
- recovery at 1 h, 10 µM [4, 23]: 71%
- recovery at 1 h, 10 µM [4, 24]: 64%
- Papp A→B at 1 h, 10 µM [4, 25]: < 1 ×10⁻⁶ cm/s
- Papp A→B at 1 h, 10 µM [4, 26]: < 1 ×10⁻⁶ cm/s
- Papp B→A at 1 h, 10 µM [4, 27]: 24 ×10⁻⁶ cm/s
- Papp B→A at 1 h, 10 µM [4, 28]: 20 ×10⁻⁶ cm/s
